# Results: article PMC8213057, “Targeting ALK2: An Open Science Approach to Developing Therapeutics for the Treatment of Diffuse Intrinsic Pontine Glioma” (Journal of Medicinal Chemistry, 2020)
# Columns and labels:
# [1] = molecular target: T1, EPHB1 (Homo sapiens, UniProt P54762); details: 1 μM; Run 1, Run 2
# T1 sequence (P54762 18-984): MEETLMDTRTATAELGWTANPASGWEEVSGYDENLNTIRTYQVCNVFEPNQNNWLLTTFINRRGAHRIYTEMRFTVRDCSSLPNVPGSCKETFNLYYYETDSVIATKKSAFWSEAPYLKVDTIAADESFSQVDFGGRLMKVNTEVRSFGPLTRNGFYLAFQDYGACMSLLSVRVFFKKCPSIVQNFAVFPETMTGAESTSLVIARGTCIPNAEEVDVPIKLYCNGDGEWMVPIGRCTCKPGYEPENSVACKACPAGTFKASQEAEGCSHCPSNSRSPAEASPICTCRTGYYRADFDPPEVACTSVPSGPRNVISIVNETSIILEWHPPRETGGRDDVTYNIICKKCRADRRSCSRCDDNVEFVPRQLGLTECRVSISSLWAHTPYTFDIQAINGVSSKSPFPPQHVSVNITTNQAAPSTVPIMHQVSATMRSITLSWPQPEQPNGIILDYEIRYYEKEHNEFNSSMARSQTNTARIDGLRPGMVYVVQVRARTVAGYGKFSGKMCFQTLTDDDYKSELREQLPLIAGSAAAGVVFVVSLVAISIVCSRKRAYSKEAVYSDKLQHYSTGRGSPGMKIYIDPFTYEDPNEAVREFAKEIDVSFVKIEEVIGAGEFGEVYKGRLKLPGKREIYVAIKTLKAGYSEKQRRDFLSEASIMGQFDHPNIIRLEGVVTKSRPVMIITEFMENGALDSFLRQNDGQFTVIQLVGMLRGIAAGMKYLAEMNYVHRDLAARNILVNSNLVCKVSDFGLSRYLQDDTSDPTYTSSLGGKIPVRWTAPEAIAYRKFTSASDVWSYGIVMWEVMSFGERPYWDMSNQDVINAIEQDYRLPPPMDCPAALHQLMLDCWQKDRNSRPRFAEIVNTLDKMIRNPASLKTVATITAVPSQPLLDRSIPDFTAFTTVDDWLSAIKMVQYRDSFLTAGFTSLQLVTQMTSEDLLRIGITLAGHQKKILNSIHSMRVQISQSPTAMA
# [2] = molecular target: GRK4 (Homo sapiens, UniProt P32298); details: 1 μM; Run 1, Run 2
# Sequence of GRK4 (P32298 whole entry): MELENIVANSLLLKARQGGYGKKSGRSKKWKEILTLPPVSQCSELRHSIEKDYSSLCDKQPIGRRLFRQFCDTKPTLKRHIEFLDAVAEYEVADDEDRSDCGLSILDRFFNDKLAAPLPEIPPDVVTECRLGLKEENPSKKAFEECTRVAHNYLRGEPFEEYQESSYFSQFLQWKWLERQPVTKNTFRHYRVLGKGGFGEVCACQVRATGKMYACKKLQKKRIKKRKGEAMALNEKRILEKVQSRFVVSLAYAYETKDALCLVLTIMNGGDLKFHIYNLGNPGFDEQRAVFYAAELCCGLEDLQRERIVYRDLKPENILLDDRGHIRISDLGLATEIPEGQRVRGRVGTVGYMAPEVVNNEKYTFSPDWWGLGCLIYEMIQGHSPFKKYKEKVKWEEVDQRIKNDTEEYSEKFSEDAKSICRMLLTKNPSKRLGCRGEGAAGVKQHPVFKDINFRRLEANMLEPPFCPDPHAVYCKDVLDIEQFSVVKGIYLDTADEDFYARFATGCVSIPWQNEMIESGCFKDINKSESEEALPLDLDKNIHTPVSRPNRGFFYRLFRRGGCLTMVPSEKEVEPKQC
# [3] = molecular target: STK33 (Homo sapiens, UniProt Q9BYT3); details: 1 μM; Run 1, Run 2
# Sequence of STK33 (Q9BYT3 whole entry): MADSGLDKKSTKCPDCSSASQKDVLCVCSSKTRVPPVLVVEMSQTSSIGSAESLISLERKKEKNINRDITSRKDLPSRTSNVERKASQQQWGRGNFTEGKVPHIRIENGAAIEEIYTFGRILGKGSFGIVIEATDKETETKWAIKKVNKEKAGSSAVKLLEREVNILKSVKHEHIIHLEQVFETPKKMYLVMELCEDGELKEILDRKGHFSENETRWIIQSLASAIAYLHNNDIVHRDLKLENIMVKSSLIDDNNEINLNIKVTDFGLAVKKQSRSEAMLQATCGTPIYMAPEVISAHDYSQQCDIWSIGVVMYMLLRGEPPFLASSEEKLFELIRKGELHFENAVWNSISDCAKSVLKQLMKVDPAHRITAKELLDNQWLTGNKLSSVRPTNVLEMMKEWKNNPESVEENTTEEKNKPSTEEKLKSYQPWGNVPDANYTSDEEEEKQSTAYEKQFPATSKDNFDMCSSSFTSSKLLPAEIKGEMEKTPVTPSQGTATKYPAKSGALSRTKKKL
# [4] = molecular target: T2, TAOK3/JIK (Homo sapiens, UniProt Q9H2K8); details: 1 μM; Run 1, Run 2
# T2 sequence (Q9H2K8 1-898): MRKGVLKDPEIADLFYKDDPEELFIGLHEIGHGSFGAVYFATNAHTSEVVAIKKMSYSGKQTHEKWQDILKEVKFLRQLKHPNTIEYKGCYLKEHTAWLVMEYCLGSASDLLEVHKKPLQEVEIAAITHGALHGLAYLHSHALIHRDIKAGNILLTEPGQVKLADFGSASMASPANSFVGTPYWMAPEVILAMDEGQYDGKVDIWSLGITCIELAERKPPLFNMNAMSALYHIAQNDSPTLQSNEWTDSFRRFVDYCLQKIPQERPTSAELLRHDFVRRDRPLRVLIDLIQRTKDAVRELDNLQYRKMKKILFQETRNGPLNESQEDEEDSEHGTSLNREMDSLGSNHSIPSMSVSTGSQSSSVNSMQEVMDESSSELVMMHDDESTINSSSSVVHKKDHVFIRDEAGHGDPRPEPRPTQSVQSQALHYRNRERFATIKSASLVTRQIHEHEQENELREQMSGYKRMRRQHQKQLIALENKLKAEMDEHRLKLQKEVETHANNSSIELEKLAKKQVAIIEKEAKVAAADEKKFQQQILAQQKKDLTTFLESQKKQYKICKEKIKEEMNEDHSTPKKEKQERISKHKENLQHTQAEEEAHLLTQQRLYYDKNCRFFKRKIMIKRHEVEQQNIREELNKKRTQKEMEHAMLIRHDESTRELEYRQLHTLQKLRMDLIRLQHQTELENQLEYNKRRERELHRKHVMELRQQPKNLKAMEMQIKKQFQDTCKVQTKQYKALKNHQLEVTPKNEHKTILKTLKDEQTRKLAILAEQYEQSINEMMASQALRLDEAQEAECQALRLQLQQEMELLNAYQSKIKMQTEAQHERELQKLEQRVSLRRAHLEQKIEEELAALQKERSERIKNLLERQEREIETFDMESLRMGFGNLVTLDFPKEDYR
# [5] = molecular target: CAMK4 (Homo sapiens, UniProt Q16566); test: biochemical; details: read-out: % enzyme activity, 1 μM; Run 1, Run 2
# Sequence of CAMK4 (Q16566 whole entry): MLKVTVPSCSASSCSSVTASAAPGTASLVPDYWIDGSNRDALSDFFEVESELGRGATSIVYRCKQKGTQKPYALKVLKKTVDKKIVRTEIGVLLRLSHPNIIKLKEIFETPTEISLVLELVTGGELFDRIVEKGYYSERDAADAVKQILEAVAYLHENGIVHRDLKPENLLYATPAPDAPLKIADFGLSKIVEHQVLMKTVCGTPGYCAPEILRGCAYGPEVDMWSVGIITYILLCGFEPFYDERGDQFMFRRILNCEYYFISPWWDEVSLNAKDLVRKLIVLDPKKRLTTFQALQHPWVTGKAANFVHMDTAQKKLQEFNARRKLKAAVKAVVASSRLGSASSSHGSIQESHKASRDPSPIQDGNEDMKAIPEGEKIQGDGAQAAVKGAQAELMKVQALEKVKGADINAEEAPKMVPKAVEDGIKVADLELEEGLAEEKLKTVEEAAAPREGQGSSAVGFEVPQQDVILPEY
# [6] = molecular target: CDK1/cyclin B (Homo sapiens, UniProt P06493); test: biochemical; details: read-out: % enzyme activity, 1 μM; Run 1, Run 2
# Sequence of CDK1/cyclin B (P06493 whole entry): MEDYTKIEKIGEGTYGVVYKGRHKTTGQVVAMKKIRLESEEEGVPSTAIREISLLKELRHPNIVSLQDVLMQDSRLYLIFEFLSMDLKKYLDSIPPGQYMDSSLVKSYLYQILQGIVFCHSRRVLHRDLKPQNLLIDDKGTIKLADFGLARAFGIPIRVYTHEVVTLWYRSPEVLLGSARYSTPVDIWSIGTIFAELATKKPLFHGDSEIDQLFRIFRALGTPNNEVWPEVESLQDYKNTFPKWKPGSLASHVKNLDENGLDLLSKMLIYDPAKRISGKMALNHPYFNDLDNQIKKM
# Sequence of CDK1/cyclin B (P14635 whole entry partner): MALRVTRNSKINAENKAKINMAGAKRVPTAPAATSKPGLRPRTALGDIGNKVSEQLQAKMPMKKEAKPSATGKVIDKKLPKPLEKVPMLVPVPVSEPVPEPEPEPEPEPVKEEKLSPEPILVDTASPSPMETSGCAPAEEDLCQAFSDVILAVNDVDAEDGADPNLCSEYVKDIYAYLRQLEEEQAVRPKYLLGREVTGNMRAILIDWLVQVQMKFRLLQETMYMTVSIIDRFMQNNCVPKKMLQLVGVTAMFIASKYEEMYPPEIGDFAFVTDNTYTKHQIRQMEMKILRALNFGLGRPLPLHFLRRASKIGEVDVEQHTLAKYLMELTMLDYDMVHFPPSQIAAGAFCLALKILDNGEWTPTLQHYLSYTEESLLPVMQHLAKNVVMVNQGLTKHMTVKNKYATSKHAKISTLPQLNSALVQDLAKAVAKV
# [7] = molecular target: MARK3 (Homo sapiens, UniProt P27448); test: biochemical; details: read-out: % enzyme activity, 1 μM; Run 1, Run 2
# Sequence of MARK3 (P27448 whole entry): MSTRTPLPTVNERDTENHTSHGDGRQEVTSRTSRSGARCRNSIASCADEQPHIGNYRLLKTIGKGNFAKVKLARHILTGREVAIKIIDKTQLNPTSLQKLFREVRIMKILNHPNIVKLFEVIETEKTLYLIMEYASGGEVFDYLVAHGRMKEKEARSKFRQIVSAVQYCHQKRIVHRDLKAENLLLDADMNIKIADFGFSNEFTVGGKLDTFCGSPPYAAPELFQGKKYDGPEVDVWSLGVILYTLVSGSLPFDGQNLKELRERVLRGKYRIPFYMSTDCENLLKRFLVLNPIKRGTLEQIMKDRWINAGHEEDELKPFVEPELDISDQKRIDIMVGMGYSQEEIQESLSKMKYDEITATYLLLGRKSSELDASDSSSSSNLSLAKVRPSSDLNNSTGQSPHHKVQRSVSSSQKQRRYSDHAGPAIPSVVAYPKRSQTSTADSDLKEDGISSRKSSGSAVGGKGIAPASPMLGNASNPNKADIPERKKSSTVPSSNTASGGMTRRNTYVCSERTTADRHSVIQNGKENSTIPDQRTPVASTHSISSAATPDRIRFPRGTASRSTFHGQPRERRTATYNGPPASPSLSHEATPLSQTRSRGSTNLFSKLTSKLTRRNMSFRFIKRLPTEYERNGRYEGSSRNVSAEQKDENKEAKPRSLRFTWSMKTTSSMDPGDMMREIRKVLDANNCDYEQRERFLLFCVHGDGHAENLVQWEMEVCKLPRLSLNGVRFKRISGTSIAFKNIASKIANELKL
Compound,% enzyme activity [1],% enzyme activity [2],% enzyme activity [3],% enzyme activity [4],remaining activity at 1 µM [5],remaining activity at 1 µM [6],remaining activity at 1 µM [7]
"COc1cc(-c2cncc(-c3ccc(N4CCN(C)CC4)cc3)c2C)cc(F)c1C(N)=O [Compound 26a, 2-Fluoro-6-methoxy-4-(4-methyl-5-(4-(4-methylpiperazin-1-yl)phenyl)pyridin-3-yl)benzamide]",91.99%,79.15%,88.77%,69.26%,100%,95.7%,83.5%
"COc1cc(-c2cncc(-c3ccc(N4C[C@@H](C)N(C)[C@@H](C)C4)cc3)c2C)cc(F)c1C(N)=O [Compound 26c, 2-Fluoro-6-methoxy-4-(4-methyl-5-(4-((3R,5S)-3,4,5-trimethylpiperazin-1-yl)phenyl)pyridin-3-yl)benzamide]",89.37%,92.15%,96.94%,81.51%,103%,94%,95%
